# Where a SMILES comes first, the peptide text is derived from it. [ ]: non-standard residue; d: D form. The star is where a group is joined. Dolaproine = CO[C@@H]([C@@H]1CCCN1)[C@@H](C)C(=O)O; Dil = CC[C@H](C)[C@H](NC)[C@@H](CC(=O)O)OC; X1 = C[C@@H](N*)[C@@H](O)c1ccccc1; NMeV = CN[C@H](C(=O)O)C(C)C
# Legend:
# [1] = tested on: folate receptor-positive KB cell line; test: CellTiter-Glo anti-proliferation assay, 3xFA(γ),3xMMAE-XTEN on KB cells with or without folic acid competitor; type: cell-based; settings: Homo sapiens, no folic acid competitor
# Method: The ability to selectively target and kill cells bearing folate receptors was evaluated. Test articles of free MMAE, a non-targeting 3xMMAE-XTEN conjugate (XTEN linked to toxin) and the folate receptor-targeted 3xFA(γ),3xMMAE-XTEN conjugate were evaluated in a CellTiter-Glo anti-proliferation assay using the folate receptor-positive KB cell line. As culture media contain high folic acid content, KB cells were grown in folic acid-free media containing 10% heat-inactivated fetal calf serum at 37° C., 5% CO2 for at least 7 days prior to the commencement of the cell viability experiment, This medium was also utilized for the execution of the experiment. In brief, KB cells were plated at 10,000 cells per well onto a 96-well microtiter assay plate. KB cells were allowed to adhere to the plate by an overnight incubation at 37° C., 5% CO2. The spent media was then removed and wells designated to contain folic acid competitor received assay medium containing folic acid, while wells not designated to have folic acid competitor received assay medium only. The plate was incubated for 30 min at 37° C., 5% CO2 before the assay media was aspirated and plate washed with assay media. […] After the appropriate incubation period, CellTiter-Glo reagent was added and the plate was read on a luminometer. The IC50 of each test article was determined using a 4 parameter logistic curve fit using GraphPad Prism.
# [2] = in Man; cited from earlier work
Compound,IC50 [1],half-life [2]
"CC[C@H](C)[C@@H]([C@@H](CC(=O)N1CCC[C@H]1[C@H](OC)[C@@H](C)C(=O)N[C@H](C)[C@@H](O)c1ccccc1)OC)N(C)C(=O)[C@@H](NC(=O)[C@@H](NC)C(C)C)C(C)C [MMAE, monomethyl auristatin E] (H-[NMeV]V[Dil][Dolaproine]-X1)",0.8 nM,
pyroGlu-His-Trp-Ser-Tyr-Gly-Leu-Arg-Pro-Gly-NH2 [LHRH],,less than 4 minutes

# From patent US20180125988A1, “TARGETED XTEN CONJUGATE COMPOSITIONS AND METHODS OF MAKING SAME” (AMUNIX OPERATING INC., priority 2014, published 2018)
